Measured values from patent US20260070945A1, “MACROCYCLIC IMMUNOMODULATORS” (Bristol-Myers Squibb Company, priority 2022, published 2026).
Where a SMILES comes first, the peptide text is derived from it. Bridges are numbered along the chain shown (N, C = ends). [ ]: non-standard residue; d: D form. The star is where a group is joined. ξ: configuration not given here. Phe(4-COOH) = N[C@@H](Cc1ccc(C(=O)O)cc1)C(=O)O; Bip = N[C@@H](Cc1ccc(-c2ccccc2)cc1)C(=O)O; Phe(3-Me) = Cc1cccc(C[C@H](N)C(=O)O)c1; dIle(3ξ) = CCC(C)[C@@H](N)C(=O)O; Cha = N[C@@H](CC1CCCCC1)C(=O)O; Cit = NC(=O)NCCC[C@H](N)C(=O)O; Ile(3ξ) = CCC(C)[C@H](N)C(=O)O; NMeN = CN[C@@H](CC(N)=O)C(=O)O; Thr(3ξ) = CC(O)[C@H](N)C(=O)O; hSer = N[C@@H](CCO)C(=O)O; Carboxymethyl = O=C(O)C*; NMeA = CN[C@@H](C)C(=O)O; Orn = NCCC[C@H](N)C(=O)O; dNMeA = CN[C@H](C)C(=O)O; Aun = NCCCCCCCCCCC(=O)O; Dab = NCC[C@H](N)C(=O)O; AEEA = NCCOCCOCC(=O)O

target: T1, PD-1/PD-L1 interaction (PE-labeled human PD-L1-Ig binding to Jurkat cell line over-expressing human PD-1) (Homo sapiens, UniProt Q15116); experiment: Jurkat-PD-1 Cell Binding High-Content Screening Assay (CBA); settings: Jurkat-hPD-1 cells, PE-labeled PD-L1-Ig 20 nM final; read-out: Jurkat HPD1 PDL1 IC50
T1 construct: expressed in transfected cells; host or cells: Jurkat
Outline: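 Binding of 20 nM (final) PE-tagged PD-L1-Ig to compound-pretreated Jurkat-hPD-1 cells was measured by high-content imaging after 1 h. Pretreatment ran 2 h at 37 °C in DMEM with 10% fetal calf serum.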

T1 sequence (Q15116 25-288): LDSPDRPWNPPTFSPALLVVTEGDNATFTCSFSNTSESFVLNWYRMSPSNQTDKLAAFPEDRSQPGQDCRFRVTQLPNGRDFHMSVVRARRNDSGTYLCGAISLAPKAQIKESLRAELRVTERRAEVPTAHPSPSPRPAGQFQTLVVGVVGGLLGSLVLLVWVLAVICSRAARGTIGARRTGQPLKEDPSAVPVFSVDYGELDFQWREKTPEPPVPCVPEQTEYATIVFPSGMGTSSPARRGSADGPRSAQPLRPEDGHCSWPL

Row | IC50 | Compound
1 | 26 nM | CC(C)C[C@H]1NC(=O)[C@H](CC(N)=O)N(C)C(=O)[C@H](C(C)C)NC(=O)[C@H](Cc2ccc(-c3ccccc3)cc2)NC(=O)[C@H](C(C)C)NC(=O)[C@H](Cc2c[nH]c3ccccc23)NC(=O)[C@H](CC(=O)O)NC(=O)[C@H](Cc2ccc(OCC(=O)O)cc2)NC(=O)[C@H](C(C)O)NC(=O)CSC[C@@H](C(=O)N[C@@H](CCN)C(=O)NCCCCCCCCCCC(=O)O)NC(=O)[C@H](C(C)O)NC(=O)[C@H](C(C)C)NC(=O)[C@H](CC2CCCCC2)NC(=O)[C@H](CCN)NC1=O (stereo partly drawn) [Example 2243] ({CH2CO}-[Thr(3ξ)]Y(Carboxymethyl)DWV[Bip]V[NMeN][dL][Dab][Cha]V[Thr(3ξ)]C[Dab][Aun]-OH; thioether N-14)
2 | 38.6 nM | CC(C)C[C@@H]1NC(=O)[C@H](Cc2c[nH]c3ccccc23)NC(=O)[C@H](CC(=O)O)NC(=O)[C@H](Cc2ccc(C(=O)O)cc2)NC(=O)[C@H](Cc2ccc(OCC(=O)O)cc2)NC(=O)CSC[C@@H](C(=O)NCCOCCOCC(=O)NCCCCCCCCCCC(=O)O)NC(=O)[C@H](CCO)NC(=O)[C@H](C(C)C)NC(=O)[C@H](CC2CCCCC2)NC(=O)[C@H](CCN)NC(=O)[C@@H](CC(C)C)NC(=O)[C@H](C)N(C)C(=O)[C@H](CCC(N)=O)NC(=O)[C@H](Cc2ccc(-c3ccccc3)cc2)NC1=O [Example 2244] ({CH2CO}-Y(Carboxymethyl)[Phe(4-COOH)]DWL[Bip]Q[NMeA][dL][Dab][Cha]V[hSer]C[AEEA][Aun]-OH; thioether N-14)
3 | 25 nM | Cc1cccc(C[C@@H]2NC(=O)[C@H](CC(=O)O)NC(=O)[C@H](Cc3ccc(C(=O)O)cc3)NC(=O)[C@H](Cc3ccc(OCC(=O)O)cc3)NC(=O)CSC[C@@H](C(=O)NCCCCCCCCCCC(=O)O)NC(=O)[C@H](CCCNC(N)=O)NC(=O)[C@H](C(C)C)NC(=O)[C@H](CC3CCCCC3)NC(=O)[C@H](CCN)NC(=O)[C@@H](CC(C)C)NC(=O)[C@H](C)N(C)C(=O)[C@H](CC(C)C)NC(=O)[C@H](Cc3ccc(-c4ccccc4)cc3)NC(=O)[C@H](CC(C)C)NC2=O)c1 [Example 2245] ({CH2CO}-Y(Carboxymethyl)[Phe(4-COOH)]D[Phe(3-Me)]L[Bip]L[NMeA][dL][Dab][Cha]V[Cit]C[Aun]-OH; thioether N-14)
4 | 16.1 nM | Cc1cccc(C[C@@H]2NC(=O)[C@H](CC(=O)O)NC(=O)[C@H](Cc3ccc(C(=O)O)cc3)NC(=O)[C@H](Cc3ccc(OCC(=O)O)cc3)NC(=O)CSC[C@@H](C(=O)NCCCCCCCCCCC(=O)O)NC(=O)[C@H](CCCNC(N)=O)NC(=O)[C@H](C(C)C)NC(=O)[C@H](CC3CCCCC3)NC(=O)[C@H](CCN)NC(=O)[C@@H](CC(C)C)NC(=O)[C@H](C)N(C)C(=O)[C@H](CCC(N)=O)NC(=O)[C@H](Cc3ccc(-c4ccccc4)cc3)NC(=O)[C@H](CC(C)C)NC2=O)c1 [Example 2246] ({CH2CO}-Y(Carboxymethyl)[Phe(4-COOH)]D[Phe(3-Me)]L[Bip]Q[NMeA][dL][Dab][Cha]V[Cit]C[Aun]-OH; thioether N-14)
5 | 4.9 nM | CC(=O)NCCCC[C@@H]1NC(=O)[C@H](Cc2ccc(-c3ccccc3)cc2)NC(=O)[C@H](CC(C)C)NC(=O)[C@H](Cc2cccc(C)c2)NC(=O)[C@H](CC(=O)O)NC(=O)[C@H](Cc2ccc(C(=O)O)cc2)NC(=O)[C@H](Cc2ccc(OCC(=O)O)cc2)NC(=O)CSC[C@@H](C(=O)NCCCCCCCCCCC(=O)O)NC(=O)[C@H](CCCNC(N)=O)NC(=O)[C@H](C(C)C)NC(=O)[C@H](CC2CCCCC2)NC(=O)[C@H](CCN)NC(=O)[C@@H](CC(C)C)NC(=O)[C@H](C)N(C)C1=O [Example 2247] ({CH2CO}-Y(Carboxymethyl)[Phe(4-COOH)]D[Phe(3-Me)]L[Bip]K(Ac)[NMeA][dL][Dab][Cha]V[Cit]C[Aun]-OH; thioether N-14)

Further lines, the compound ahead of its results:

Row | Compound | IC50
6 | Cc1cccc(C[C@@H]2NC(=O)[C@H](CC(=O)O)NC(=O)[C@H](Cc3ccc(OCC(=O)O)cc3)NC(=O)[C@H](CCCNC(=N)N)NC(=O)CSC[C@@H](C(=O)N[C@@H](CCN)C(=O)NCCCCCCCCCCC(=O)O)NC(=O)[C@H](C(C)O)NC(=O)[C@H](C(C)C)NC(=O)[C@H](CC3CCCCC3)NC(=O)[C@H](CCN)NC(=O)[C@@H](CC(C)C)NC(=O)[C@H](C)N(C)C(=O)[C@H](CCC(N)=O)NC(=O)[C@H](Cc3ccc(-c4ccccc4)cc3)NC(=O)[C@H](C(C)C)NC2=O)c1 (stereo partly drawn) [Example 2233] ({CH2CO}-RY(Carboxymethyl)D[Phe(3-Me)]V[Bip]Q[NMeA][dL][Dab][Cha]V[Thr(3ξ)]C[Dab][Aun]-OH; thioether N-14) | 9.7 nM
7 | CC(C)C[C@@H]1NC(=O)[C@H](Cc2c[nH]c3ccccc23)NC(=O)[C@H](CC(=O)O)NC(=O)[C@H](Cc2ccc(C(=O)O)cc2)NC(=O)[C@H](Cc2ccc(OCC(=O)O)cc2)NC(=O)CSC[C@@H](C(=O)N[C@H](CC(N)=O)C(=O)NCCCCCCCCCCC(=O)O)NC(=O)[C@H](CO)NC(=O)[C@H](C(C)C)NC(=O)[C@H](CC2CCCCC2)NC(=O)[C@H](CCN)NC(=O)[C@@H](CC(C)C)NC(=O)[C@H](C)N(C)C(=O)[C@H](C(C)C)NC(=O)[C@H](Cc2ccc(-c3ccccc3)cc2)NC1=O [Example 2234] ({CH2CO}-Y(Carboxymethyl)[Phe(4-COOH)]DWL[Bip]V[NMeA][dL][Dab][Cha]VSC[dN][Aun]-OH; thioether N-14) | 13.4 nM
8 | Cc1cccc(C[C@@H]2NC(=O)[C@H](CC(=O)O)NC(=O)[C@H](Cc3ccc(C(=O)O)cc3)NC(=O)[C@H](Cc3ccc(OCC(=O)O)cc3)NC(=O)CSC[C@@H](C(=O)N[C@H](CC(N)=O)C(=O)NCCCCCCCCCCC(=O)O)NC(=O)[C@H](CO)NC(=O)[C@H](C(C)C)NC(=O)[C@H](CC3CCCCC3)NC(=O)[C@H](CCN)NC(=O)[C@@H](CC(C)C)NC(=O)[C@H](C)N(C)C(=O)[C@H](C(C)C)NC(=O)[C@H](Cc3ccc(-c4ccccc4)cc3)NC(=O)[C@H](CC(C)C)NC2=O)c1 [Example 2235] ({CH2CO}-Y(Carboxymethyl)[Phe(4-COOH)]D[Phe(3-Me)]L[Bip]V[NMeA][dL][Dab][Cha]VSC[dN][Aun]-OH; thioether N-14) | 20 nM
9 | CCC(C)[C@H]1NC(=O)[C@H](Cc2ccc(-c3ccccc3)cc2)NC(=O)[C@H](CC(C)C)NC(=O)[C@H](Cc2c[nH]c3ccccc23)NC(=O)[C@H](CC(=O)O)NC(=O)[C@H](Cc2ccc(C(=O)O)cc2)NC(=O)[C@H](Cc2ccc(OCC(=O)O)cc2)NC(=O)CSC[C@@H](C(=O)NCCCCCCCCCCC(=O)O)NC(=O)[C@H](CCCCN)NC(=O)[C@H](C(C)C)NC(=O)[C@H](CC2CCCCC2)NC(=O)[C@H](CCN)NC(=O)[C@@H](CC(C)C)NC(=O)[C@@H](C)N(C)C1=O (stereo partly drawn) [Example 2236] ({CH2CO}-Y(Carboxymethyl)[Phe(4-COOH)]DWL[Bip][dIle(3ξ)][dNMeA][dL][Dab][Cha]VKC[Aun]-OH; thioether N-14) | 13.1 nM
10 | CCC(C)[C@@H]1NC(=O)[C@H](Cc2ccc(-c3ccccc3)cc2)NC(=O)[C@H](CC(C)C)NC(=O)[C@H](Cc2c[nH]c3ccccc23)NC(=O)[C@H](CC(=O)O)NC(=O)[C@H](Cc2ccc(C(=O)O)cc2)NC(=O)[C@H](Cc2ccc(OCC(=O)O)cc2)NC(=O)CSC[C@@H](C(=O)NCCCCCCCCCCC(=O)O)NC(=O)[C@H](CCCNC(=N)N)NC(=O)[C@H](C(C)C)NC(=O)[C@H](CC2CCCCC2)NC(=O)[C@H](CCN)NC(=O)[C@@H](CC(C)C)NC(=O)[C@H](C)N(C)C1=O (stereo partly drawn) [Example 2237] ({CH2CO}-Y(Carboxymethyl)[Phe(4-COOH)]DWL[Bip][Ile(3ξ)][NMeA][dL][Dab][Cha]VRC[Aun]-OH; thioether N-14) | 15 nM
11 | CCC(C)[C@@H]1NC(=O)[C@H](Cc2ccc(-c3ccccc3)cc2)NC(=O)[C@H](C(C)C)NC(=O)[C@H](Cc2c[nH]c3ccccc23)NC(=O)[C@H](CC(=O)O)NC(=O)[C@H](Cc2ccc(OCC(=O)O)cc2)NC(=O)[C@H](Cc2ccc(OCC(=O)O)cc2)NC(=O)CSC[C@@H](C(=O)N[C@H](CC(N)=O)C(=O)NCCCCCCCCCCC(=O)O)NC(=O)[C@H](CCCCN)NC(=O)[C@H](C(C)C)NC(=O)[C@H](CC2CCCCC2)NC(=O)[C@H](CCN)NC(=O)[C@@H](CC(C)C)NC(=O)[C@H](C)N(C)C1=O (stereo partly drawn) [Example 2239] ({CH2CO}-Y(Carboxymethyl)Y(Carboxymethyl)DWV[Bip][Ile(3ξ)][NMeA][dL][Dab][Cha]VKC[dN][Aun]-OH; thioether N-14) | 6 nM
12 | Cc1cccc(C[C@@H]2NC(=O)[C@H](CC(=O)O)NC(=O)[C@H](Cc3ccc(OCC(=O)O)cc3)NC(=O)[C@H](C(C)O)NC(=O)CSC[C@@H](C(=O)N[C@H](CC(N)=O)C(=O)NCCCCCCCCCCC(=O)O)NC(=O)[C@H](CCCN)NC(=O)[C@H](C(C)C)NC(=O)[C@H](CC3CCCCC3)NC(=O)[C@H](CCN)NC(=O)[C@@H](CC(C)C)NC(=O)[C@H](C)N(C)C(=O)[C@H](Cc3ccc(O)cc3)NC(=O)[C@H](Cc3ccc(-c4ccccc4)cc3)NC(=O)[C@H](C(C)C)NC2=O)c1 (stereo partly drawn) [Example 2241] ({CH2CO}-[Thr(3ξ)]Y(Carboxymethyl)D[Phe(3-Me)]V[Bip]Y[NMeA][dL][Dab][Cha]V[Orn]C[dN][Aun]-OH; thioether N-14) | 10.2 nM
13 | CC(C)C[C@H]1NC(=O)[C@H](C)N(C)C(=O)[C@H](Cc2ccc(O)cc2)NC(=O)[C@H](Cc2ccc(-c3ccccc3)cc2)NC(=O)[C@H](C(C)C)NC(=O)[C@H](Cc2c[nH]c3ccccc23)NC(=O)[C@H](CC(=O)O)NC(=O)[C@H](Cc2ccc(OCC(=O)O)cc2)NC(=O)[C@H](C(C)O)NC(=O)CSC[C@@H](C(=O)N[C@H](CC(N)=O)C(=O)NCCCCCCCCCCC(=O)O)NC(=O)[C@H](CCCN)NC(=O)[C@H](C(C)C)NC(=O)[C@H](CC2CCCCC2)NC(=O)[C@H](CCN)NC1=O (stereo partly drawn) [Example 2242] ({CH2CO}-[Thr(3ξ)]Y(Carboxymethyl)DWV[Bip]Y[NMeA][dL][Dab][Cha]V[Orn]C[dN][Aun]-OH; thioether N-14) | 114 nM
